Assays:
[1] = cited from earlier work
[2] = Cloud point of aqueous concentrate compositions; format: physicochemical; conditions: 12 wt % surfactant
Experimental: For aqueous solution concentrates, high temperature storage stability is often indicated by a cloud point of about 50° C. or more. Cloud point of a composition is normally determined by heating the composition until the solution becomes cloudy, and then allowing the composition to cool, with agitation, while its temperature is continuously monitored. A temperature reading taken when the solution clears is a measure of cloud point. A cloud point of 50° C. or more is normally considered acceptable for most commercial purposes for a glyphosate SL formulation. Ideally the cloud point should be 60° C. or more, and the composition should withstand temperatures as low as about −10° C. for up to about 7 days without crystal growth, even in the presence of seed crystals of the glyphosate salt.
Cloud points were measured by heating a small amount of the material in a test tube until the solution became hazy or cloudy then removing the test tube from the heat and observing the temperature at which the solution became clear on cooling. The temperature at which the solution became clear is noted as the cloud point.
Cloud point was determined for certain liquid compositions of Examples 66-69 as follows. A sample of the composition in a test tube was heated in a water bath until it became cloudy. The test tube was then removed from the water bath and the sample stirred with a thermometer until it became clear. The temperature at which the sample became clear was recorded as the cloud point of the composition.

[3] = Haake viscosity (Haake VT500, shear rate 45 sec^−1); format: physicochemical; conditions: 12 wt % surfactant
Experimental: (§1) Viscosities were measured using a Haake Model VT500(Haake, Inc., Karlsruhe Germany) equipped with the appropriate MV series cup and bob sensor system at a shear rate of 45 sec^−1. The temperature was varied with the attached water bath. For a few samples for which insufficient sample was available the viscosities were measured with a Brookfield Model DV-11 equipped with a Small Sample Adapter (Brookfield Laboratories, Inc., Stoughton, Mass.).

[4] = Compatibility of surfactant with potassium glyphosate concentrate (no phase separation, 50° C., 1 week); format: physicochemical; conditions: 50° C. oven 1 week; for Compatible w/37% a.e. K + glyphosate at 12 wt % loading: 37 wt. % a.e. potassium glyphosate/12 wt. % surfactant; for Compatible w/40% a.e. K + glyphosate at 10% wt loading: 40 wt. % a.e. potassium glyphosate/10 wt. % surfactant; for Compatible w/45% a.e. K + glyphosate at 15% wt loading: 45 wt. % a.e. potassium glyphosate/15 wt. % surfactant
Experimental: For the 31 wt. % a.e. potassium glyphosate/10 wt. % surfactant compositions: 1.550 g of 40 wt. % a.e. aqueous glyphosate potassium salt solution was weighed into a vial. To the same vial, 0.200 g of surfactant was added. Enough deionized water was then added to the contents to bring the total weight to 2.000g. The mixture was stirred for 2 hours at room temperature and checked to see if a solution had been formed. If a solution was present, the test vial was allowed to stand at room temperature overnight. If a solution was still present, the test vial was placed in a 50° C. oven for 1 week. If no phase separation had occurred in one week, the surfactant being tested was considered “compatible.” All of the surfactants identified in Table 4 were compatible at the 31% a.e. potassium/10 wt. % surfactant loading.
For the 37 wt. % a.e. potassium glyphosate/12 wt. % surfactant compositions: 41.1 g of 45 wt. % a.e. aqueous glyphosate potassium salt was weighed to a container. To the same container was added 6.0 g of surfactant and 2.9 g deionized water for a total weight of 50.0 g. The remainder of the protocol is the same as that described for the 31 wt. % samples. The surfactants identified in Table 4 that were compatible at the 37% a.e. potassium/12 wt. % surfactant loading are indicated in Table 5 below.
For the 40 wt. % a.e. potassium glyphosate/10 wt. % surfactant compositions: 1.79 g of 45 wt. % a.e. aqueous glyphosate potassium salt was weighed into a vial. To the same vial was added 0.2 g of surfactant. The remainder of the protocol is the same as that described for the 31 wt. % samples. The surfactants identified in Table 4 that were compatible at the 40% a.e. potassium/10 wt. % surfactant loading are indicated in Table 5 below.
For the 45 wt. % a.e. potassium glyphosate/15 wt. % surfactant compositions: 1.100 g of solid mono potassium glyphosate was weighed into a vial. To the same vial was added 0.300 g surfactant. Enough deionized water was added to the vial to bring the final weight to 2.000 g. The remainder of the protocol is the same as that described for the 31 wt. % samples. The surfactants identified in Table 4 that were compatible at the 45% a.e. potassium/[…] are indicated in Table 5 below.

[5] = test system: Velvetleaf (ABUTH) and Japanese millet (ECHCF); assay: Greenhouse herbicidal effectiveness, overall statements for both weeds; format: in vivo, Abutilon theophrasti; Echinochloa crus-galli; conditions: summary sentence of the respective Example
Excerpt: The herbicidal effectiveness data set forth herein report “inhibition” as a percentage following a standard procedure in the art which reflects a visual assessment of plant mortality and growth reduction by comparison with untreated plants, made by technicians specially trained to make and record such observations. In all cases, a single technician makes all assessments of percent inhibition within any one experiment or trial. Such measurements are relied upon and regularly reported by Monsanto Company in the course of its herbicide business.
The following procedure was used for testing compositions of the Examples to determine herbicidal effectiveness, except where otherwise indicated. […]
Pots were assigned to different treatments in a fully randomized experimental design with 6 replications. A set of pots was left untreated as a reference against which effects of the treatments could later be evaluated.
Application of glyphosate compositions was made by spraying with a track sprayer fitted with a 9501 E nozzle calibrated to deliver a spray volume of 93 liters per hectare (l/ha) at a pressure of 165 kilopascals (kPa). After treatment, pots were returned to the greenhouse until ready for evaluation. […]

[6] = Specific gravity (Mettler DA-300 Density/Specific Gravity Meter); format: physicochemical; conditions: 20/15.6° C.; 30% a.e. by weight glyphosate monobasic salt solutions
Experimental: Specific gravities are measured using a Mettler DA-300 Density/Specific Gravity Meter.

[7] = Density of formulations (Mettler DA-300 Density Meter); format: physicochemical; conditions: 20° C.; 50.0% glyphosate acid (61% potassium glyphosate) solution of Example A
Experimental: The density was then determined using a Mettler DA-300 Density Meter and the concentrations in grams per liter was calculated.

[8] = Compatibility of surfactant with diammonium glyphosate concentrate (no phase separation, 50° C., 1 week); format: physicochemical; conditions: 50° C. oven 1 week; for Compatible w/31% a.e. diammonium glyphosate at 10 wt % loading: 31 wt. % a.e. diammonium glyphosate/10 wt. % surfactant; for Compatible w/37% a.e. diammonium glyphosate at 12 wt % loading: 37 wt. % a.e. diammonium glyphosate/12 wt. % surfactant
Experimental: For the 31 wt. % a.e. NH4^+glyphosate/10 wt. % surfactant compositions: • 1.48 g of 41.9 wt % a.e. aqueous glyphosate diammonium (1.7 eq) salt was weighed into a vial. To the same vial was added 0.2 g of surfactant and 0.32 g deionized water. The remainder of the protocol is the same as that described for the 31 wt % potassium glyphosate samples. The surfactants identified in Table 4 that were compatible at the 31% a.e. ammonium/10 wt. % surfactant loading are indicated in Table 5 below.
For the 37 wt. % a.e. NH4^+glyphosate/12 wt. % surfactant compositions: • 1.76 g of 41.9 wt % a.e. aqueous glyphosate diammonium (1.7 eq) salt was weighed into a vial. To the same vial was added […]. The remainder of the protocol is the same as that described for the 31 wt % potassium glyphosate samples. The surfactants identified in Table 4 that were compatible at the 37% a.e. ammonium/12 wt. % surfactant loading are indicated in Table 5 below.

[9] = Brookfield viscosity (Model DV-11, Small Sample Adapter); format: physicochemical; conditions: 10° C.
Experimental: as §1

Row | Cloud Point Data 37% a.e. K + glyphosate at 12 wt % loading [2] | Viscosity Data 37% a.e. K + glyphosate at 12 wt % loading, Haake Vis. ([3]; 0° C.) | Viscosity Data 37% a.e. K + glyphosate at 12 wt % loading, Haake Vis. ([3]; 5° C.) | Viscosity Data 37% a.e. K + glyphosate at 12 wt % loading, Haake Vis. ([3]; 10° C.) | Viscosity Data 37% a.e. K + glyphosate at 12 wt % loading, Haake Vis. ([3]; 15° C.) | Viscosity Data 37% a.e. K + glyphosate at 12 wt % loading, Haake Vis. ([3]; 25° C.) | Viscosity Data 37% a.e. K + glyphosate at 12 wt % loading, Haake Vis. ([3]; −5° C.) | Compatible w/37% a.e. K + glyphosate at 12 wt % loading [4] | Compatible w/31% a.e. diammonium glyphosate at 10 wt % loading [8] | Compatible w/37% a.e. diammonium glyphosate at 12 wt % loading [8] | Compatible w/45% a.e. K + glyphosate at 15% wt loading [4] | Viscosity Data 37% a.e. K + glyphosate at 12 wt % loading, Brookfield Vis. ([9]; Spindle 31, 12 rpm) | Viscosity Data 37% a.e. K + glyphosate at 12 wt % loading, Brookfield Vis. ([9]; Spindle 31, 60 rpm) | Molecule | further results
1 | >90 °C | 2517 cPs | 2269 cPs | 1963 cPs | 1420 cPs | 1077 cPs | −5° C., too thick | Yes | – | – | – | – | – | CC(C)CC(C)CC(C)COCCCNCCCN (centres unmarked) [R] | –
2 | >90 °C | – | – | – | – | – | – | Yes | Yes | Yes | Yes | – | – | CCCCCCCCNCC(O)C(O)C(O)C(O)CO (centres unmarked) [AA] | Viscosity Data 37% a.e. K + glyphosate at 12 wt % loading, Brookfield Viscosity ([9]; Spindle 31, 12 rpm): 12 rpm, 52.6 cPs; Viscosity Data 37% a.e. K + glyphosate at 12 wt % loading, Brookfield Viscosity ([9]; Spindle 31, 60 rpm): 60 rpm, 60.1 cPs; Compatible w/40% a.e. K + glyphosate at 10% wt loading [4]: Yes
3 | – | – | – | – | – | – | – | Yes | Yes | Yes | Yes | 12 rpm, 76.5 cp | 60 rpm, 78.2 cp | CCCCCCN(CCCN(CCCCCC)CC(O)C(O)C(O)C(O)CO)CC(O)C(O)C(O)C(O)CO (centres unmarked) [Surfactant AAA, 1,6 hexylaminoglucitol propane] | –
4 | – | – | – | – | – | – | – | Yes | No | No | – | 12 rpm, 86.5 cp | 60 rpm, 88.2 cp | CCCCCCCCCCCCCCCCCCN(C)CC(O)C(O)C(O)C(O)CO (centres unmarked) [SS] | –
5 | – | – | – | – | – | – | – | Yes | No | No | – | 12 rpm, 114 cp | 60 rpm, 113 cp | CCCCCCCCN(C)CC(O)C(O)C(O)C(O)CO (centres unmarked) [UU] | –

Further lines, the molecule ahead of its results:

Row | Molecule | Cloud Point Data 37% a.e. K + glyphosate at 12 wt % loading [2] | Viscosity Data 37% a.e. K + glyphosate at 12 wt % loading, Haake Vis. ([3]; 0° C.) | Viscosity Data 37% a.e. K + glyphosate at 12 wt % loading, Haake Vis. ([3]; 5° C.) | Viscosity Data 37% a.e. K + glyphosate at 12 wt % loading, Haake Vis. ([3]; 10° C.) | Viscosity Data 37% a.e. K + glyphosate at 12 wt % loading, Haake Vis. ([3]; 15° C.) | Viscosity Data 37% a.e. K + glyphosate at 12 wt % loading, Haake Vis. ([3]; 25° C.) | Viscosity Data 37% a.e. K + glyphosate at 12 wt % loading, Haake Vis. ([3]; −5° C.) | Compatible w/37% a.e. K + glyphosate at 12 wt % loading [4] | Compatible w/31% a.e. diammonium glyphosate at 10 wt % loading [8] | Compatible w/37% a.e. diammonium glyphosate at 12 wt % loading [8] | Compatible w/45% a.e. K + glyphosate at 15% wt loading [4] | Viscosity Data 37% a.e. K + glyphosate at 12 wt % loading, Brookfield Vis. ([9]; Spindle 31, 12 rpm) | Viscosity Data 37% a.e. K + glyphosate at 12 wt % loading, Brookfield Vis. ([9]; Spindle 31, 60 rpm) | further results
6 | O=C(O)CNCP(=O)(O)O [glyphosate, N-phosphonomethylglycine] | – | – | – | – | – | – | – | – | – | – | – | – | – | Solubility in water ([1]; 25° C.): 1.16 % by weight
7 | (C12-14)O(CHCH3CH2)O—(CHCH3CH2)N(EO)x(EO)y x + y = 5 [Composition M121] | – | – | – | – | – | – | – | – | – | – | – | – | – | Herbicidal effectiveness overall or on both ABUTH and ECHCF, comparison in words [5]: more effective for potentiating the IPA
8 | O=C(O)CNCP(=O)([O-])O.[K+] [potassium, glyphosate potassium salt] | – | – | – | – | – | – | – | – | – | – | – | – | – | Specific Gravity [6]: 1.2539; Solubility in pure water ([1]; 20° C., as salt): about 54 % by weight; Solubility in pure water, glyphosate acid equivalent ([1]; 20° C.): about 44 % glyphosate acid equivalent (a.e.) by weight; Density of the resulting solution [7]: approximately 1.4661 grams/milliliter
9 | CCCCN(CCCC)CCCN [F] | >90 °C | 273.01 cPs | 173.57 cPs | 142.38 cPs | 110.89 cPs | 57.29 cPs | 400.48 cPs | Yes | – | – | Yes | – | – | Compatible w/40% a.e. K + glyphosate at 10% wt loading [4]: Yes
10 | NCCOCCOCCN [DD] | >90 °C | 231.17 cPs | 150.26 cPs | 138.80 cPs | 82.51 cPs | 49.37 cPs | 397.16 cPs | Yes | – | – | – | – | – | –

— US20050261130A1, “Novel surfactants and formulations” (Monsanto Technology LLC, priority 2000, published 2005)
